Test results taken from patent US10131652B2, “Pyrimidinyloxy benzene derivatives as herbicides” (E. I. DU PONT DE NEMOURS AND COMPANY, priority 2014, dated 2018).
Where two headings read alike, the source gives them in different places.

Key:
Assay in all cases: Test E pre-/postemergence plant response
Format in all cases: in vivo
[1] = tested on: Italian ryegrass (Lolium multiflorum); conditions: scale 0 to 100, read-out: Plant response rating, Ryegrass, Italian; for pest or weed control at 16 g/ha: 16 g ai/ha; for pest or weed control at 31 g/ha: 31 g ai/ha; for pest or weed control at 62 g/ha: 62 g ai/ha; for pest or weed control at 125 g/ha: 125 g ai/ha
Method in brief: (§1)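 Pre-emergence: seeds sown in silt loam soil and sprayed with test chemicals in a non-phytotoxic solvent/surfactant mix. Post-emergence: plants at 2–18 cm (1- to 4-leaf stage) in peat/vermiculite medium treated with the same formulation. Visual rating versus controls after 7–21 days, 0 (no effect) to 100 (complete control).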

[2] = tested on: chickweed (common chickweed, Stellaria media); conditions: scale 0 to 100, read-out: Plant response rating, Chickweed; for pest or weed control at 16 g/ha: 16 g ai/ha; for pest or weed control at 31 g/ha: 31 g ai/ha; for pest or weed control at 62 g/ha: 62 g ai/ha; for pest or weed control at 125 g/ha: 125 g ai/ha
Method in brief: as §1

[3] = tested on: field violet (Viola arvensis); conditions: scale 0 to 100, read-out: Plant response rating, Field Violet; for pest or weed control at 16 g/ha: 16 g ai/ha; for pest or weed control at 31 g/ha: 31 g ai/ha; for pest or weed control at 62 g/ha: 62 g ai/ha; for pest or weed control at 125 g/ha: 125 g ai/ha
Method in brief: as §1

[4] = tested on: galium (catchweed bedstraw, Galium aparine); conditions: scale 0 to 100, read-out: Plant response rating, Galium; for pest or weed control at 16 g/ha: 16 g ai/ha; for pest or weed control at 31 g/ha: 31 g ai/ha; for pest or weed control at 62 g/ha: 62 g ai/ha; for pest or weed control at 125 g/ha: 125 g ai/ha
Method in brief: as §1

[5] = tested on: green foxtail (Setaria viridis); conditions: scale 0 to 100, read-out: Plant response rating, Foxtail, Green; for pest or weed control at 16 g/ha: 16 g ai/ha; for pest or weed control at 31 g/ha: 31 g ai/ha; for pest or weed control at 62 g/ha: 62 g ai/ha; for pest or weed control at 125 g/ha: 125 g ai/ha
Method in brief: as §1

[6] = tested on: lambsquarters (Chenopodium album); conditions: scale 0 to 100, read-out: Plant response rating, Lambsquarters; for pest or weed control at 16 g/ha: 16 g ai/ha; for pest or weed control at 31 g/ha: 31 g ai/ha; for pest or weed control at 62 g/ha: 62 g ai/ha; for pest or weed control at 125 g/ha: 125 g ai/ha
Method in brief: as §1

[7] = tested on: oilseed rape (Brassica napus); conditions: scale 0 to 100, read-out: Plant response rating, Oilseed Rape; for plant injury at 16 g/ha: 16 g ai/ha; for plant injury at 31 g/ha: 31 g ai/ha; for plant injury at 62 g/ha: 62 g ai/ha; for plant injury at 125 g/ha: 125 g ai/ha
Method in brief: as §1

[8] = tested on: pigweed (Amaranthus retroflexus); conditions: scale 0 to 100, read-out: Plant response rating, Pigweed; for pest or weed control at 16 g/ha: 16 g ai/ha; for pest or weed control at 31 g/ha: 31 g ai/ha; for pest or weed control at 62 g/ha: 62 g ai/ha; for pest or weed control at 125 g/ha: 125 g ai/ha
Method in brief: as §1

[9] = tested on: spring wheat (Triticum aestivum); conditions: scale 0 to 100, read-out: Plant response rating, Wheat, Spring; for plant injury at 16 g/ha: 16 g ai/ha; for plant injury at 62 g/ha: 62 g ai/ha; for plant injury at 125 g/ha: 125 g ai/ha
Method in brief: as §1

[10] = tested on: winter barley (Hordeum vulgare); conditions: scale 0 to 100, read-out: Plant response rating, Barley, Winter; for plant injury at 16 g/ha: 16 g ai/ha; for plant injury at 31 g/ha: 31 g ai/ha; for plant injury at 62 g/ha: 62 g ai/ha; for plant injury at 125 g/ha: 125 g ai/ha
Method in brief: as §1

FC(F)c1cc(-c2ccccc2Oc2ncc(Cl)cn2)on1 [Compound 53, 5-chloro-2-[2-[3-(difluoromethyl)-5-isoxazolyl]phenoxy]pyrimidine]
pest or weed control at 16 g/ha ([1]; post-emergence, Postemergence): 0%
pest or weed control at 31 g/ha ([1]; post-emergence, Postemergence): 0%
pest or weed control at 62 g/ha ([1]; post-emergence, Postemergence): 5%
pest or weed control at 125 g/ha ([1]; post-emergence, Postemergence): 5%
pest or weed control at 16 g/ha ([1]; pre-emergence, Preemergence): 10%
pest or weed control at 31 g/ha ([1]; pre-emergence, Preemergence): 10%
pest or weed control at 62 g/ha ([1]; pre-emergence, Preemergence): 25%
pest or weed control at 125 g/ha ([1]; pre-emergence, Preemergence): 25%
pest or weed control at 16 g/ha ([2]; post-emergence, Postemergence): 30%
pest or weed control at 31 g/ha ([2]; post-emergence, Postemergence): 50%
pest or weed control at 62 g/ha ([2]; post-emergence, Postemergence): 60%
pest or weed control at 125 g/ha ([2]; post-emergence, Postemergence): 65%
pest or weed control at 16 g/ha ([2]; pre-emergence, Preemergence): 100%
pest or weed control at 31 g/ha ([2]; pre-emergence, Preemergence): 100%
pest or weed control at 62 g/ha ([2]; pre-emergence, Preemergence): 100%
pest or weed control at 125 g/ha ([2]; pre-emergence, Preemergence): 100%
pest or weed control at 16 g/ha ([3]; post-emergence, Postemergence): 25%
pest or weed control at 31 g/ha ([3]; post-emergence, Postemergence): 50%
pest or weed control at 62 g/ha ([3]; post-emergence, Postemergence): 70%
pest or weed control at 125 g/ha ([3]; post-emergence, Postemergence): 70%
pest or weed control at 16 g/ha ([3]; pre-emergence, Preemergence): 50%
pest or weed control at 31 g/ha ([3]; pre-emergence, Preemergence): 25%
pest or weed control at 62 g/ha ([3]; pre-emergence, Preemergence): 60%
pest or weed control at 125 g/ha ([3]; pre-emergence, Preemergence): 100%
pest or weed control at 16 g/ha ([4]; post-emergence, Postemergence): 75%
pest or weed control at 31 g/ha ([4]; post-emergence, Postemergence): 75%
pest or weed control at 62 g/ha ([4]; post-emergence, Postemergence): 75%
pest or weed control at 125 g/ha ([4]; post-emergence, Postemergence): 75%
pest or weed control at 16 g/ha ([4]; pre-emergence, Preemergence): 25%
pest or weed control at 31 g/ha ([4]; pre-emergence, Preemergence): 30%
pest or weed control at 62 g/ha ([4]; pre-emergence, Preemergence): 60%
pest or weed control at 125 g/ha ([4]; pre-emergence, Preemergence): 100%
pest or weed control at 16 g/ha ([5]; post-emergence, Postemergence): 10%
pest or weed control at 31 g/ha ([5]; post-emergence, Postemergence): 10%
pest or weed control at 62 g/ha ([5]; post-emergence, Postemergence): 10%
pest or weed control at 125 g/ha ([5]; post-emergence, Postemergence): 25%
pest or weed control at 16 g/ha ([5]; pre-emergence, Preemergence): 10%
pest or weed control at 31 g/ha ([5]; pre-emergence, Preemergence): 10%
pest or weed control at 62 g/ha ([5]; pre-emergence, Preemergence): 20%
pest or weed control at 125 g/ha ([5]; pre-emergence, Preemergence): 55%
pest or weed control at 16 g/ha ([6]; post-emergence, Postemergence): 65%
pest or weed control at 31 g/ha ([6]; post-emergence, Postemergence): 70%
pest or weed control at 62 g/ha ([6]; post-emergence, Postemergence): 65%
pest or weed control at 125 g/ha ([6]; post-emergence, Postemergence): 75%
pest or weed control at 16 g/ha ([6]; pre-emergence, Preemergence): 60%
pest or weed control at 31 g/ha ([6]; pre-emergence, Preemergence): 75%
pest or weed control at 62 g/ha ([6]; pre-emergence, Preemergence): 100%
pest or weed control at 125 g/ha ([6]; pre-emergence, Preemergence): 100%
plant injury at 16 g/ha ([7]; post-emergence, Postemergence): 70%
plant injury at 31 g/ha ([7]; post-emergence, Postemergence): 75%
plant injury at 62 g/ha ([7]; post-emergence, Postemergence): 80%
plant injury at 125 g/ha ([7]; post-emergence, Postemergence): 80%
plant injury at 16 g/ha ([7]; pre-emergence, Preemergence): 50%
plant injury at 31 g/ha ([7]; pre-emergence, Preemergence): 75%
plant injury at 62 g/ha ([7]; pre-emergence, Preemergence): 100%
plant injury at 125 g/ha ([7]; pre-emergence, Preemergence): 100%
pest or weed control at 16 g/ha ([8]; post-emergence, Postemergence): 85%
pest or weed control at 31 g/ha ([8]; post-emergence, Postemergence): 85%
pest or weed control at 62 g/ha ([8]; post-emergence, Postemergence): 90%
pest or weed control at 125 g/ha ([8]; post-emergence, Postemergence): 90%
pest or weed control at 16 g/ha ([8]; pre-emergence, Preemergence): 30%
pest or weed control at 31 g/ha ([8]; pre-emergence, Preemergence): 20%
pest or weed control at 62 g/ha ([8]; pre-emergence, Preemergence): 100%
pest or weed control at 125 g/ha ([8]; pre-emergence, Preemergence): 100%
plant injury at 16 g/ha ([9]; post-emergence, Postemergence): 10%
plant injury at 31 g/ha ([9]; post-emergence, 31 g ai/ha, Postemergence): 10%
plant injury at 62 g/ha ([9]; post-emergence, Postemergence): 20%
plant injury at 125 g/ha ([9]; post-emergence, Postemergence): 35%
plant injury at 16 g/ha ([9]; pre-emergence, Preemergence): 5%
plant injury at 62 g/ha ([9]; pre-emergence, Preemergence): 10%
plant injury at 125 g/ha ([9]; pre-emergence, Preemergence): 10%
plant injury at 16 g/ha ([10]; post-emergence, Postemergence): 5%
plant injury at 31 g/ha ([10]; post-emergence, Postemergence): 5%
plant injury at 62 g/ha ([10]; post-emergence, Postemergence): 5%
plant injury at 125 g/ha ([10]; post-emergence, Postemergence): 10%
plant injury at 16 g/ha ([10]; pre-emergence, Preemergence): 15%
plant injury at 31 g/ha ([10]; pre-emergence, Preemergence): 10%
plant injury at 62 g/ha ([10]; pre-emergence, Preemergence): 30%
plant injury at 125 g/ha ([10]; pre-emergence, Preemergence): 25%
